Structures are written as SMILES.

FGFR1 active kinase, sequence (P11362 22-822): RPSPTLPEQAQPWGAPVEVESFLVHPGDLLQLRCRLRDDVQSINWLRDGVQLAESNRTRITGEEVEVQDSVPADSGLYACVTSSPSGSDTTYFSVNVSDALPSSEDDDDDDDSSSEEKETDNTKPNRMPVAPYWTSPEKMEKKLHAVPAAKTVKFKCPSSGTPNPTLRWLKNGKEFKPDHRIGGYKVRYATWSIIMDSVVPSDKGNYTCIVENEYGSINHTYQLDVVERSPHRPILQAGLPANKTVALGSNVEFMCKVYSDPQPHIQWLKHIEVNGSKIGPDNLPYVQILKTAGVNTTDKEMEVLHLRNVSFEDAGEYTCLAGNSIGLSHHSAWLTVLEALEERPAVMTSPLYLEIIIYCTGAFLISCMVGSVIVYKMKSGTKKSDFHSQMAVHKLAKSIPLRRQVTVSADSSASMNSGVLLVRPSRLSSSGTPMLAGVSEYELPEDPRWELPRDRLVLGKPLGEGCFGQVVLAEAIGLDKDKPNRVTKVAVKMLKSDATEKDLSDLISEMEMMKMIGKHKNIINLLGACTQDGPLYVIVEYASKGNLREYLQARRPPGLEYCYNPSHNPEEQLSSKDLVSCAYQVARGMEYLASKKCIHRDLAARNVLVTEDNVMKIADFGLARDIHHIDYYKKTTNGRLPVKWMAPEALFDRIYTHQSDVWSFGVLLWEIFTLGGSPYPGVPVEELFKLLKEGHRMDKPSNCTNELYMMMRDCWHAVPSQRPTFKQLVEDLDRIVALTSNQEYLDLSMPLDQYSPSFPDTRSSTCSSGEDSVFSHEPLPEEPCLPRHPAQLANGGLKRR

The assay addresses FGFR1 active kinase (Homo sapiens, UniProt P11362). The assay can be described thus: FGFR Kinase assay - Caliper. Note: 408 µM ATP. It counts as biochemical. To be noted: FGFR1 […], 408 uM ATP; mean of n as printed; read-out: FGFR Kinase assay - Caliper, IC50. The protocol:
FGFR Kinase Assay—Caliper
To determine inhibition of FGFR activity, kinase assays were conducted using Caliper technology.
Kinase activity assays were performed in Greiner 384-well low volume plates, with a total reaction volume of 12 ul per well. Final concentration of FGFR1 active kinase in each reaction well was 7.2 nM. The substrate for each assay was a custom peptide with fluorescent tag (13 amino acids in length, […] with the fluorescene tag on the first K).
Compounds were serially diluted in 5% (v/v) DMSO, before being added to assay plates. The Enzyme (at 7.2 nM [final]) and Substrate (at 3.6 uM [final]) were added separately to the compound plates, in reaction buffer [comprising: 50 mM MOPS (Sigma, Catalogue No. M1254)—pH 6.5, 0.004% Triton (Sigma, Catalogue No. X-100), 2.4 mM DTT, 12 mM MgCl2, 408 uM ATP] resulting in a final DMSO concentration in the reaction mix of 0.8%.
Assay plates were incubated at room temperature for 1.5 h, before the reaction was stopped with the addition of buffer [comprising: 100 mM HEPES—pH7.5, 0.033% Brij-35 (Sigma Catalogue No. B4184), 0.22% Caliper Coating Reagent #3 (Caliper Life Sciences Catalogue No. 760050), 88 mM EDTA, 5% DMSO]. Stopped assay plates were then read using the Caliper LabChip® LC3000 (which uses microfludics to measure a shift in mobility between fluorescent labelled peptide and the FGFR1 kinase—phosphorylated form of this peptide).
In the assay, compounds were tested at a range of concentrations.
Percentage inhibition at 1 uM, as expressed herein, is a calculated value based on the curve fit that was generated experimentally. From the fitted curve plot, the effect of compound at a concentration of 1 uM was calculated as a percentage inhibition. The IC50 is the concentration of compound, which inhibits FGFR1 kinase activity by 50% in the context of this assay.
For `COc1cccc(CCc2cc(NC(=O)c3ccc(NC(=O)c4ccccc4)cc3)[nH]n2)c1` [Example 21, 4-Benzamido-N-[5-[2-(3-methoxyphenyl)ethyl]-2H-pyrazol-3-yl]benzamide], the IC50 was determined as 231000 nM. In the case of `COc1cccc(CCc2cc(NC(=O)c3ccc(C#N)cc3)[nH]n2)c1` [Example 23, 4-Cyano-N-[5-[2-(3-methoxyphenyl)ethyl]-2H-pyrazol-3-yl]benzamide], the half-maximal inhibitory concentration (IC50) worked out at 28600 nM.

As to `COc1cccc(CCc2cc(NC(=O)c3ccc(-n4cccn4)cc3)[nH]n2)c1` [Example 25, N-[5-[2-(3-Methoxyphenyl)ethyl]-2H-pyrazol-3-yl]-4-pyrazol-1-yl-benzamide], the IC50 is 940 nM. Take `COc1cccc(CCc2cc(NC(=O)c3ccc(Nc4ccccc4)nc3)[nH]n2)c1` [Example 26, 6-Anilino-N-[5-[2-(3-methoxyphenyl)ethyl]-2H-pyrazol-3-yl]pyridine-3-carboxamide]: the IC50 worked out at 64000 nM.

`COc1cccc(CCc2cc(NC(=O)c3ccc(NS(C)(=O)=O)cc3)[nH]n2)c1` [Example 27, 4-Methanesulfonamido-N-[5-[2-(3-methoxyphenyl)ethyl]-2H-pyrazol-3-yl]benzamide]: the IC50 was found to be 260 nM.

Consider `COc1cccc(CCc2cc(NC(=O)c3ccc(CO)cc3)[nH]n2)c1` [Example 28, 4-(Hydroxymethyl)-N-[5-[2-(3-methoxyphenyl)ethyl]-2H-pyrazol-3-yl]benzamide], for which the IC50 is 74 nM. With `COc1cccc(CCc2cc(NC(=O)c3ccc(NC=O)cn3)[nH]n2)c1` [Example 29, 5-Formamido-N-[5-[2-(3-methoxyphenyl)ethyl]-2H-pyrazol-3-yl]pyridine-2-carboxamide], the IC50 amounted to 870 nM. For `COc1cccc(CCc2cc(NC(=O)c3ccc(S(=O)(=O)N(C)C)cc3)[nH]n2)c1` [Example 30, 4-(Dimethylsulfamoyl)-N-[5-[2-(3-methoxyphenyl)ethyl]-2H-pyrazol-3-yl]benzamide], the IC50 was found to be 800 nM. For the compound `COc1cccc(CCc2cc(NC(=O)c3ccc(O)nc3)[nH]n2)c1` [Example 31, 6-Hydroxy-N-[5-[2-(3-methoxyphenyl)ethyl]-2H-pyrazol-3-yl]pyridine-3-carboxamide], the IC50 was 1050 nM. For `COc1cccc(CCc2cc(NC(=O)c3ccc(N4CCOCC4)nc3)[nH]n2)c1` [Example 32, N-[5-[2-(3-Methoxyphenyl)ethyl]-2H-pyrazol-3-yl]-6-morpholin-4-yl-pyridine-3-carboxamide], the half-maximal inhibitory concentration (IC50) worked out at 27 nM. As for `COc1cccc(CCc2cc(NC(=O)c3ccc(-c4cnco4)cc3)[nH]n2)c1` [Example 33, N-[5-[2-(3-Methoxyphenyl)ethyl]-2H-pyrazol-3-yl]-4-(1,3-oxazol-5-yl)benzamide], the IC50 was 1200 nM.

Take `COc1cccc(CCc2cc(NC(=O)c3ccc(-n4cnnn4)cc3)[nH]n2)c1` [Example 34, N-[5-[2-(3-Methoxyphenyl)ethyl]-2H-pyrazol-3-yl]-4-(tetrazol-1-yl)benzamide]: the IC50 worked out at 1000 nM.

`C=CCOC(=O)Nc1ccc(C(=O)Nc2cc(CCc3cccc(OC)c3)n[nH]2)cn1` [Example 35, Prop-2-enyl N-[5-[[5-[2-(3-methoxyphenyl)ethyl]-2H-pyrazol-3-yl]carbamoyl]pyridin-2-yl]carbamate]: the IC50 is 76000 nM. Turning to `COc1cccc(CCc2cc(NC(=O)c3ccc(-n4cncn4)cc3)[nH]n2)c1` [Example 36, N-[5-[2-(3-Methoxyphenyl)ethyl]-2H-pyrazol-3-yl]-4-(1,2,4-triazol-1-yl)benzamide], the IC50 was 660 nM. Regarding `COc1cccc(CCc2cc(NC(=O)c3ccc(-n4cccn4)nc3)[nH]n2)c1` [Example 37, N-[5-[2-(3-Methoxyphenyl)ethyl]-2H-pyrazol-3-yl]-6-pyrazol-1-yl-pyridine-3-carboxamide], the IC50 was found to be 69000 nM.

As to `COc1cc(CCc2cc(NC(=O)c3ccc(F)cc3)[nH]n2)cc(OC)c1` [Example 38, N-[5-[2-(3,5-Dimethoxyphenyl)ethyl]-2H-pyrazol-3-yl]-4-fluoro-benzamide], the IC50 amounted to 165 nM. The figure for `COc1cc(CCc2cc(NC(=O)c3cccc(OC)c3)n[nH]2)cc(OC)c1` [Example 39, N-[5-[2-(3,5-Dimethoxyphenyl)ethyl]-1H-pyrazol-3-yl]-3-methoxy-benzamide] is 370 nM.

Regarding `COc1cc(CCc2cc(NC(=O)c3cccc(N4CCOCC4)c3)n[nH]2)cc(OC)c1` [Example 40, N-[5-[2-(3,5-Dimethoxyphenyl)ethyl]-1H-pyrazol-3-yl]-3-morpholin-4-yl-benzamide], the half-maximal inhibitory concentration (IC50) turned out to be 710 nM.

With `COc1cc(CCc2cc(NC(=O)c3ccccc3OC)n[nH]2)cc(OC)c1` [Example 41, N-[5-[2-(3,5-Dimethoxyphenyl)ethyl]-1H-pyrazol-3-yl]-2-methoxy-benzamide], the IC50 came out at 2610 nM. Consider `CCOCCOc1ccc(C(=O)Nc2cc(CCc3cc(OC)cc(OC)c3)[nH]n2)cc1` [Example 42, N-[5-[2-(3,5-Dimethoxyphenyl)ethyl]-1H-pyrazol-3-yl]-4-(2-ethoxyethoxy)benzamide], for which the IC50 is 75 nM. For the compound `COc1cc(CCc2cc(NC(=O)c3ccc(N4CCCCC4)cc3)n[nH]2)cc(OC)c1` [Example 43, N-[5-[2-(3,5-Dimethoxyphenyl)ethyl]-1H-pyrazol-3-yl]-4-(1-piperidyl)benzamide], the IC50 amounted to 438 nM. As for `COc1cc(CCc2cc(NC(=O)c3ccc(OCC4CCNCC4)cc3)n[nH]2)cc(OC)c1` [Example 44, N-[5-[2-(3,5-Dimethoxyphenyl)ethyl]-1H-pyrazol-3-yl]-4-(4-piperidylmethoxy)benzamide], the IC50 was 25 nM. Turning to `COc1cc(CCc2cc(NC(=O)c3ccc(N4CCNCC4)cc3)n[nH]2)cc(OC)c1` [Example 45, N-[5-[2-(3,5-Dimethoxyphenyl)ethyl]-1H-pyrazol-3-yl]-4-piperazin-1-yl-benzamide], the IC50 is 26 nM.

With `COc1cc(CCc2cc(NC(=O)c3ccc(N4CCNCC4)nc3)n[nH]2)cc(OC)c1` [Example 46, N-[5-[2-(3,5-Dimethoxyphenyl)ethyl]-1H-pyrazol-3-yl]-6-piperazin-1-yl-pyridine-3-carboxamide], the IC50 stood at 40 nM. With `COc1cc(CCc2cc(NC(=O)c3ccc(CN(C)C)cc3)n[nH]2)cc(OC)c1` [Example 47, N-[5-[2-(3,5-Dimethoxyphenyl)ethyl]-1H-pyrazol-3-yl]-4-(dimethylaminomethyl)benzamide], the IC50 amounted to 19 nM.

With `COc1cc(CCc2cc(NC(=O)c3ccc(OCCO)cc3)n[nH]2)cc(OC)c1` [Example 48, N-[5-[2-(3,5-Dimethoxyphenyl)ethyl]-1H-pyrazol-3-yl]-4-(2-hydroxyethoxy)benzamide], the IC50 is 39 nM. `COc1cc(CCc2cc(NC(=O)c3ccc(CN4CCCC(C)(C)C4)cc3)n[nH]2)cc(OC)c1` [Example 50, N-[5-[2-(3,5-Dimethoxyphenyl)ethyl]-1H-pyrazol-3-yl]-4-[(3,3-dimethyl-1-piperidyl)methyl]benzamide]: the IC50 was 1 nM. With `COc1cc(CCc2cc(NC(=O)c3ccc(N4CCN(CCO)CC4)cc3)n[nH]2)cc(OC)c1` [Example 51, N-[5-[2-(3,5-Dimethoxyphenyl)ethyl]-1H-pyrazol-3-yl]-4-[4-(2-hydroxyethyl)piperazin-1-yl]benzamide] the figure was 81 nM; with `COc1cc(CCc2cc(NC(=O)c3ccc(CN4CCc5ccc(C#N)cc5C4)cc3)n[nH]2)cc(OC)c1` [Example 52, 4-[(7-Cyano-3,4-dihydro-1H-isoquinolin-2-yl)methyl]-N-[5-[2-(3,5-dimethoxyphenyl)ethyl]-1H-pyrazol-3-yl]benzamide], 486 nM. `COc1cc(CCc2cc(NC(=O)c3ccc(CN4CCCC(F)C4)cc3)n[nH]2)cc(OC)c1` (stereo not shown) [Example 53, N-[5-[2-(3,5-Dimethoxyphenyl)ethyl]-1H-pyrazol-3-yl]-4-[(3-fluoro-1-piperidyl)methyl]benzamide]: the IC50 was 90 nM. Turning to `COc1cc(CCc2cc(NC(=O)c3ccc(OCCN4CCOCC4)cc3)n[nH]2)cc(OC)c1` [Example 54, N-[5-[2-(3,5-Dimethoxyphenyl)ethyl]-1H-pyrazol-3-yl]-4-(2-morpholin-4-ylethoxy)benzamide], the IC50 was 96 nM. `COc1cc(CCc2cc(NC(=O)c3ccc(CCN4CCOCC4)cc3)n[nH]2)cc(OC)c1` [Example 56, N-[5-[2-(3,5-Dimethoxyphenyl)ethyl]-1H-pyrazol-3-yl]-4-(2-morpholin-4-ylethyl)benzamide]: the IC50 is 120 nM. Regarding `COc1cc(CCc2cc(NC(=O)c3ccc(C4CCNCC4)cc3)n[nH]2)cc(OC)c1` [Example 58, N-[5-[2-(3,5-Dimethoxyphenyl)ethyl]-1H-pyrazol-3-yl]-4-(4-piperidyl)benzamide], the IC50 amounted to 1 nM.

Turning to `COc1cc(CCc2cc(NC(=O)c3ccc(N(C)C)cc3)n[nH]2)cc(OC)c1` [Example 59, N-[5-[2-(3,5-Dimethoxyphenyl)ethyl]-1H-pyrazol-3-yl]-4-dimethylamino-benzamide], the IC50 was found to be 134 nM.

Broadly, the IC50 is the concentration that inhibits the measured activity by half.

These data come from patent US10301267B2, “Compounds” (AstraZeneca AB, priority 2006, dated 2019).
